Results as given in ChEMBL document CHEMBL1144962, “A new sterol sulfate, Sch 572423, from a marine sponge, Topsentia sp” (Bioorg Med Chem Lett, 2003).

Target: P2Y purinoceptor 12 (Homo sapiens, UniProt Q9H244)
Assay: Binding affinity against Purinergic receptor P2Y12 using [3H]2-methylthio-ADP as radioligand
Type: tissue-based

Chain of P2Y purinoceptor 12 (Q9H244 whole entry): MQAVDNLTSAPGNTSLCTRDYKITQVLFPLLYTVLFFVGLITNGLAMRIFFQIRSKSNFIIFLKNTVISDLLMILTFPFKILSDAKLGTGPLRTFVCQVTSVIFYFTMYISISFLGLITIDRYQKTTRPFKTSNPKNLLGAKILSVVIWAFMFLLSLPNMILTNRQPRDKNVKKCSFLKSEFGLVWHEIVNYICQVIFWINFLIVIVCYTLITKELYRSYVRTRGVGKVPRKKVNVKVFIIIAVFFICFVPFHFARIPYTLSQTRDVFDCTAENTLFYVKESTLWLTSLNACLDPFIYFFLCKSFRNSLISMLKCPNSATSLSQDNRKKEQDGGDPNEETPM

SMILES | IC50
CC(C(O)C(O)[C@@H](C)C1CC[C@H]2[C@@H]3CC[C@H]4C[C@H](OS(=O)(=O)O)[C@H](OS(=O)(=O)O)C[C@]4(C)[C@@]3(C)CC[C@]12C)C(C)(C)C (some centres not stated) | 2200 nM
CC(CC[C@@H](C)C1CC[C@H]2[C@@H]3C[C@H](OS(=O)(=O)O)[C@H]4C[C@H](OS(=O)(=O)O)[C@H](OS(=O)(=O)O)C[C@]4(C)[C@@]3(C)CC[C@]12C)C(C)(C)C (some centres not stated) | 480 nM
